# According to US5939403A, “Keratan sulfate oligosaccharide fraction and pharmaceutical containing the same” (Seikagaku Corporation, priority 1994, dated 1999):
# Legend:
# [1] = system: foot edema reversed passive Arthus reaction; assay: Foot edema reversed passive Arthus reaction; assay type: in vivo, Male Crj:SD rats
# Protocol: The effect of the keratan sulfate oligosaccharide was examined on the foot edema reversed passive Arthus reaction of rats, which is a type III allergic inflammation model. That is, the rabbit antiovalbumin serum was subcutaneously administered to the planta of the rats which were previously subjected to the administration of the test substances, furthermore ovalbumin was administered by injection into the caudal vein thereof to induce inflammation (edema), and the inhibitory effect on edema of the test substances was examined.
# Male Crj:SD rats of five weeks old were subjected to a fast of about 17 hours after a week period of quarantine, and, before inducing inflammation, subjected to the administration of the purified keratan sulfate tetrasaccharide (I) which was prepared in Example 1, indomethacin (Sigma; Lot No. 19F0018), or dexamethasone (Banyu Pharmaceutical); Decadron injection; Lot No. 8D307P) as the test substances, or saline (Otsuka Pharmaceutical; Lot No. K3H72) as the negative control. The keratan sulfate tetrasaccharide (I) and dexamethasone were dissolved in saline, respectively, and the indomethacin was dissolved in 0.5% sodium carboxymethylcellulose (CMC-Na; Wako Pure Chemical Industries; Lot No. PTN1418) in use. The volume of dose was 0.5 ml per 100 g weight in each test. Concerning the route of administration, the keratan sulfate tetrasaccharide (I), saline, and dexamethasone were administered from the caudal vein, and the indomethacin was orally administered. And the substances except for indomethacin were administered by the blind method.
# The dose and administration schedule of each test substance were as follows. Each group consisted of five animals.
# The rabbit antiovalbumin serum was subcutaneously administered to each of the rats described above on the planta thereof, and ovalbumin was further administered by injection into the caudal vein to induce inflammation foot edema. The antiserum used was prepared as follows. That is, to the regions of back of rabbits, 1 ml of the equivalently mixed solution (emulsion) of the saline containing 2% ovalbumin (10 mg per one animal, Egg Albumin 5×Cryst, Lot No. P93601; Seikagaku Corporation) and the Freund's complete adjuvant (FCA) was intradermally injected once a week three times totally to subject themselves to sensitization. About 34 days after the last sensitization, the blood was drawn to obtain the antiserum. The antibody titer of the antiserum obtained was determined by the double layer method. Namely, the determination was performed using the white precipitation reaction of the antiserum diluted with saline and the saline containing 0.1% ovalbumin (1 mg/ml) as the indicator. As a result, the antibody titer of the antiserum obtained was x2^7.
# After the period which is designed for each group, each 0.1 ml of the sixfold diluted antiserum was subcutaneously administered to the planta of left rear foot of the rats which were subjected to the administration of each test substance. Then, the saline containing 0.5% ovalbumin (25 mg/5 ml/kg) was administered into the caudal vein to induce inflammation. The volume of the treated feet in each group was determined before inducing inflammation, and one, two, three and four hours after inducing inflammation by a foot volume determining device (TK-101, Unicom) to yield the foot edematization rate from the difference from the value before the induction, and the edematization inhibitory rate of the test substance administered group to the control group was calculated. In each edematization rate obtained, the difference between the averages was tested by the minimum significant difference test. The foot edematization rate and the edematization inhibitory rate of each administered group are shown in Table 9, and the foot edematization rate of the administered groups which was subjected to the administration of the agent at five minutes and at three hours before inducing inflammation are shown in FIG. 6 and FIG. 7, respectively. […]
# [2] = system: carrageenin pleurisy; assay: Carrageenin pleurisy model; assay type: in vivo, Female S.D. rats; details: dexamethasone acetate 150 μg/kg s.c.; six hours
# Protocol: The effect of the keratan sulfate oligosaccharide was examined with the carrageenin pleurisy model of rats which is generally used for evaluation of anti-inflammatory agents.
# Female S.D. rats (n=37) of about 150 to 170 g weight were used for the test. The λ-carrageenin (Sigma) was dissolved in saline to a concentration of 2%, and the solution was filtered with a 0.8 μm filter. The carrageenin solution obtained was intrathoracically administered at 100 μl/animal to prepare the pleurisy model.
# To the pleurisy model of rats (n=19) described above, the keratan sulfate tetrasaccharide (I) dissolved in PBS was subcutaneously (s.c.) administered in 20 mg/kg or 10 mg/kg dose. And as the positive control, steroid (dexamethasone acetate; Banyu Pharmaceutical) was subcutaneously administered to the eight rats described above in 150 μg/kg which was the clinical dose. As the negative control, PBS was subcutaneously administered to the 10 rats. Each administration was carried out immediately after the administration of carrageenin.
# Each rat was anatomized six hours after the administration of λ-carrageenin. The thoracic cavity of the rats was opened to collect the retained pleural fluid using a 2-ml syringe with probe. After that, inside of the thoracic cavity was washed with 1 ml of saline, and the washing solution was recovered. The volume of the pleural fluid recovered with the syringe was determined, and the number of leukocyte (cell number) in the pleural fluid was determined by an automatic cytometer. The results are be shown in FIG. 8 and FIG. 9, respectively. In the figures, * and ** represent that they have the significant difference with p<0.05 and p<0.01, respectively (wherein "p" means a level of significance by the Duncan test).
smiles,measurement,setting,value
"COc1ccc2c(c1)c(CC(=O)O)c(C)n2C(=O)c1ccc(Cl)cc1 [Indomethacin, indomethacin, reference compound]",Inhibitory Rate,"[1]; 1 Hour Later, 5 mg/kg oral at 30 minutes before inducing edema",13.5%
same,Edematization Rate,"[1]; 1 Hour Later, 5 mg/kg oral at 30 minutes before inducing edema, control 40.9",35.4 ± 1.6%
same,Inhibitory Rate,"[1]; 2 Hours Later, 5 mg/kg oral at 30 minutes before inducing edema",17.5%
same,Edematization Rate,"[1]; 2 Hours Later, 5 mg/kg oral at 30 minutes before inducing edema, P < 0.05, control 46.3",38.2 ± 2.9%
same,Inhibitory Rate,"[1]; 3 Hours Later, 5 mg/kg oral at 30 minutes before inducing edema",9.0%
same,Edematization Rate,"[1]; 3 Hours Later, 5 mg/kg oral at 30 minutes before inducing edema, control 51.2",46.4 ± 2.8%
same,Inhibitory Rate,"[1]; 4 Hours Later, 5 mg/kg oral at 30 minutes before inducing edema",13.8%
same,Edematization Rate,"[1]; 4 Hours Later, 5 mg/kg oral at 30 minutes before inducing edema, P < 0.05, control 44.9",38.7 ± 3.1%
same,"foot edematization rate, significance (result in words)","[1]; indomethacin 5 mg/kg oral, 30 minutes before",significantly low values were observed after two hours and after four hours
"C[C@@H]1C[C@H]2[C@@H]3CCC4=CC(=O)C=C[C@]4(C)[C@@]3(F)[C@@H](O)C[C@]2(C)[C@@]1(O)C(=O)CO [Dexamethasone, dexamethasone, reference compound]",Inhibitory Rate,"[1]; 1 Hour Later, dexamethasone 1 mg/kg i.v. at 3 hours before inducing edema",47.8%
same,Edematization Rate,"[1]; 1 Hour Later, dexamethasone 1 mg/kg i.v. at 3 hours before inducing edema, P < 0.01, control 40.9",21.3 ± 3.1%
same,Inhibitory Rate,"[1]; 2 Hours Later, dexamethasone 1 mg/kg i.v. at 3 hours before inducing edema",31.7%
same,Edematization Rate,"[1]; 2 Hours Later, dexamethasone 1 mg/kg i.v. at 3 hours before inducing edema, P < 0.01, control 46.3",31.6 ± 2.2%
same,Inhibitory Rate,"[1]; 3 Hours Later, dexamethasone 1 mg/kg i.v. at 3 hours before inducing edema",39.9%
same,Edematization Rate,"[1]; 3 Hours Later, dexamethasone 1 mg/kg i.v. at 3 hours before inducing edema, P < 0.01, control 51.2",30.7 ± 1.5%
same,Inhibitory Rate,"[1]; 4 Hours Later, dexamethasone 1 mg/kg i.v. at 3 hours before inducing edema",58.1%
same,Edematization Rate,"[1]; 4 Hours Later, dexamethasone 1 mg/kg i.v. at 3 hours before inducing edema, P < 0.01, control 44.9",18.8%
same,"foot edematization rate, significance (result in words)","[1]; dexamethasone 1 mg/kg, three hours before",significantly low values were observed at any determination point between one and four hours after inducing inflammation
"CC(=O)OCC(=O)[C@@]1(O)[C@H](C)C[C@H]2[C@@H]3CCC4=CC(=O)C=C[C@]4(C)[C@@]3(F)[C@@H](O)C[C@@]21C [Dexamethasone Acetate, dexamethasone acetate, reference compound]",number of leukocyte in pleural fluid (FIG. 9),[2],significantly less than that in the control group
same,quantity of pleural fluid (FIG. 8),[2],significantly less than that in the negative control group
